{"source": "ChEMBL document CHEMBL3044875", "about": "“Synthesis and antimicrobial activity of some bisoctahydroxanthene-1,8-dione derivatives” (2011)", "format_in_all_cases": "functional", "key": {"Escherichia coli": {"system": "Escherichia coli", "assay": "Antibacterial activity against Escherichia coli ATCC 25922 at 10 ug/disk after 24 hr by disk-diffusion method", "conditions": "ATCC 25922, 24 h, read-out: DIZ"}, "Nocardia": {"system": "Nocardia", "assay": "Antibacterial activity against Nocardia canis at 10 ug/disk after 24 hr by disk diffusion method", "conditions": "read-out: DIZ"}, "[1]": {"system": "Staphylococcus epidermidis", "assay": "Antibacterial activity against Staphylococcus epidermidis ATCC 12228 at 10 ug/disk after 24 hr by disk diffusion method", "conditions": "ATCC 12228, 24 h, read-out: DIZ"}, "Bacillus cereus": {"system": "Bacillus cereus", "assay": "Antibacterial activity against Bacillus cereus NRRL 3711 at 10 ug/disk after 24 hr by disk diffusion method", "conditions": "NRRL 3711, 24 h, read-out: DIZ"}, "Pseudomonas aeruginosa": {"system": "Pseudomonas aeruginosa", "assay": "Antibacterial activity against Pseudomonas aeruginosa ATCC 27853 at 10 ug/disk after 24 hr by disk-diffusion method", "conditions": "ATCC 27853, 24 h, read-out: DIZ"}, "Staphylococcus aureus": {"system": "Staphylococcus aureus", "assay": "Antibacterial activity against Staphylococcus aureus ATCC 25923 at 10 ug/disc after 24 hr by disk diffusion method", "conditions": "ATCC 25923, 24 h, read-out: DIZ"}, "Proteus vulgaris": {"system": "Proteus vulgaris", "assay": "Antibacterial activity against Proteus vulgaris NRRL-B-123 at 10 ug/disk after 24 hr by disk diffusion method", "conditions": "NRRL-B-123, 24 h, read-out: DIZ"}}}
{"smiles": "CN(C)[C@@H]1C(O)=C(C(N)=O)C(=O)[C@@]2(O)C(O)=C3C(=O)c4c(O)cccc4[C@@](C)(O)[C@H]3C[C@@H]12", "note": "[TETRACYCLINE]", "values": [{"measurement": "zone of inhibition at 10 µg/disc", "setting": "Escherichia coli", "result": 25, "unit": "mm"}, {"measurement": "zone of inhibition at 10 µg/disc", "setting": "Nocardia", "result": 14, "unit": "mm"}, {"measurement": "zone of inhibition at 10 µg/disc", "setting": "[1]", "result": 15, "unit": "mm"}, {"measurement": "zone of inhibition at 10 µg/disc", "setting": "Bacillus cereus", "result": 28, "unit": "mm"}, {"measurement": "zone of inhibition at 10 µg/disc", "setting": "Pseudomonas aeruginosa", "result": 13, "unit": "mm"}, {"measurement": "zone of inhibition at 10 µg/disc", "setting": "Staphylococcus aureus", "result": 40, "unit": "mm"}, {"measurement": "zone of inhibition at 10 µg/disc", "setting": "Proteus vulgaris", "result": 15, "unit": "mm"}]}
